This assay deals with T1, recombinant guanylate cyclase reporter cell line (Rattus norvegicus, UniProt P19686+P20595).
T1 construct: expressed in transfected cells
T1 sequence (P20595 1-619): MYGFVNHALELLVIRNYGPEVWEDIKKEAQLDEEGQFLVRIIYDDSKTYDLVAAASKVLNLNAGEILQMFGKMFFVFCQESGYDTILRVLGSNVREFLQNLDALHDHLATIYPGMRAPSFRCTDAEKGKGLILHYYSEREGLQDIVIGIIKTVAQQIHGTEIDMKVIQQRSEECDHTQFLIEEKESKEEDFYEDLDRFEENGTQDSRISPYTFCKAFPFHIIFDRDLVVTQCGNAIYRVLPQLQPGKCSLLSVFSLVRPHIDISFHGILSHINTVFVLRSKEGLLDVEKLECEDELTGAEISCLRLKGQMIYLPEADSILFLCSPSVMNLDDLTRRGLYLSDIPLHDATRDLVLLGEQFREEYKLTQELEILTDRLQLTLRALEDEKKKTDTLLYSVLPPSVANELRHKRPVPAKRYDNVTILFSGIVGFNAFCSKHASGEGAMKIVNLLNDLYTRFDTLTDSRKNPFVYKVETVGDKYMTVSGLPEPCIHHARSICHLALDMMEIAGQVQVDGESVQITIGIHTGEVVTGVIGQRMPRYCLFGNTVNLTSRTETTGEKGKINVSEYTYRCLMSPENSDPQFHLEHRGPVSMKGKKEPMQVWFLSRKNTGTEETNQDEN
T1 sequence (P19686 1-690): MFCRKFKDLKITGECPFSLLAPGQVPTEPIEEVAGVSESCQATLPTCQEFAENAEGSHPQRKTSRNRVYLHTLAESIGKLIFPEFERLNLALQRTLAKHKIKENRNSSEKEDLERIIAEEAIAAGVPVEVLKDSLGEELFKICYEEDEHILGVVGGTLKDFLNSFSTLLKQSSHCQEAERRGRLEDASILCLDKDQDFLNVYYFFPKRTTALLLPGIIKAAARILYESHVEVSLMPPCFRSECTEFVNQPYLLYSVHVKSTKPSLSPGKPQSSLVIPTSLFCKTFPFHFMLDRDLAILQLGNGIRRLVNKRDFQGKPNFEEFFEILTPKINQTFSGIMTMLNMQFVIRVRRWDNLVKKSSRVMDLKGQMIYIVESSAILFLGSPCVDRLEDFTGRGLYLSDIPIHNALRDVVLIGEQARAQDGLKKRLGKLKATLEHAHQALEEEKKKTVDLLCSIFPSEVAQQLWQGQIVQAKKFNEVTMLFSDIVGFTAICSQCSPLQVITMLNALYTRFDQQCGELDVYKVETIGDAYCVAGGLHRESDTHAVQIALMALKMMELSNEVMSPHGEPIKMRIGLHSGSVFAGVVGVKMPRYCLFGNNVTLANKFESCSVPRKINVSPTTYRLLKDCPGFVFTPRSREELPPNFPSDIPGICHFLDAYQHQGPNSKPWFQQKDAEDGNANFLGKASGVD
The experiment in a line: B-2. Action on recombinant guanylate cyclase reporter cell line. Type of assay: cell-based. The conditions noted are these: MEC = minimal effective concentration; in some cases mean values from individual determinations. A digest of the protocol:
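Whole-cell reporter assay with recombinant guanylate cyclase; endpoint = minimal effective concentration.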
For the molecule `COc1ccc(CC(C)(N)CNC(=O)c2c(C)nc3c(OCc4c(F)cccc4F)cc(C)cn23)cc1` (racemic) [Example 368, rac-N-[2-amino-3-(4-methoxyphenyl)-2-methylpropyl]-8-[(2,6-difluorobenzyl)oxy]-2,6-dimethylimidazo[1,2-a]pyridine-3-carboxamide], the MEC was determined as 0.10 µM.

On to `Cc1nc2c(OCc3c(F)cccc3F)cccn2c1C(=O)NC(CN)c1ccccc1` (single isomer, unassigned; enantiomer b) [Example 18, ent-N-(2-Amino-1-phenylethyl)-8-[(2,6-difluorobenzyl)oxy]-2-methylimidazo[1,2-a]pyridine-3-carboxamide (Enantiomer B)], for which the MEC worked out at 0.55 µM.

In the case of `Cc1nc2c(OCc3c(F)cccc3F)cc(Cl)cn2c1C(=O)NCC(N)C(C)C` (single isomer, unassigned) [Example 211, ent-N-(2-Amino-3-methylbutyl)-6-chloro-8-[(2,6-difluorobenzyl)oxy]-2-methylimidazo[1,2-a]-pyridine-3-carboxamide], the MEC is 0.30 µM.

Turning to `CCCC(C)(N)CNC(=O)c1c(C)nc2c(OC(C)c3c(F)cccc3F)cc(C)cn12` (centres unmarked) [Example 257, N-(2-Amino-2-methylpentyl)-8-[1-(2,6-difluorophenyl)ethoxy]-2,6-dimethylimidazo[1,2-a]-pyridine-3-carboxamide], the MEC is 1.00 µM.

In the case of `Cc1nc2c(OCc3c(F)cccc3F)cccn2c1C(=O)NC1CCCN(C)C1` (racemic) [Example 84, rac-8-[(2,6-difluorobenzyl)oxy]-2-methyl-N-(1-methylpiperidin-3-yl)imidazo[1,2-a]-pyridine-3-carboxamide], the MEC stood at 1.00 µM.

With `Cc1cc(OCc2c(F)cccc2F)c2nc(C)c(C(=O)NC3CC(C)Nc4ccc(C(F)(F)F)nc43)n2c1` (single isomer, unassigned; ent-8) [Example 326, ent-8-[(2,6-Difluorobenzyl)oxy]-2,6-dimethyl-N-[2-methyl-6-(trifluoromethyl)-1,2,3,4-tetrahydro-1,5-naphthyridin-4-yl]imidazo[1,2-a]pyridine-3-carboxamide], the MEC turned out to be 0.30 µM.

Take `Cc1cc(OCc2c(F)cccc2F)c2nc(C)c(C(=O)NCC3CSCCN3)n2c1` (racemic) [Example 366, rac-8-[(2,6-difluorobenzyl)oxy]-2,6-dimethyl-N-(thiomorpholin-3-ylmethyl)imidazo[1,2-a]pyridine-3-carboxamide]: the MEC amounted to 0.10 µM.

For `Cc1cc(OCCC(C(F)(F)F)C(F)(F)F)c2nc(C)c(C(=O)NCC(C)(N)CC(C)C)n2c1` (racemic) [Example 258, rac-N-(2-Amino-2,4-dimethylpentyl)-2,6-dimethyl-8-[4,4,4-trifluoro-3-(trifluoromethyl)butoxy]-imidazo[1,2-a]pyridine-3-carboxamide], the MEC is 1.00 µM.

`Cc1nc2c(OCc3c(F)cccc3F)cccn2c1C(=O)NC(CN)COc1ccc(F)c(F)c1` (stereo not drawn) [Example 124, ent-N-[1-Amino-3-(3,4-difluorophenoxy)propan-2-yl]-8-[(2,6-difluorobenzyl)oxy]-2-methylimidazo[1,2-a]pyridine-3-carboxamide Ditrifluoroacetate]: the MEC turned out to be 1.00 µM.

Consider `Cc1cc(OCc2c(F)cccc2F)c2nc(C)c(C(=O)NC(CN)c3ccc(F)c(F)c3)n2c1` (stereo not drawn) [Example 51, ent-N-[2-Amino-1-(3,4-difluorophenyl)ethyl]-8-[(2,6-difluorobenzyl)oxy]-2,6-dimethylimidazo-[1,2-a]pyridine-3-carboxamide], for which the MEC was found to be 0.20 µM.

As for `Cc1nc2c(OCc3c(F)cccc3F)cc(Cl)cn2c1C(=O)NCC(C)(N)C(F)(F)F` (single isomer, unassigned) [Example 238, ent-N-(2-Amino-3,3,3-trifluoro-2-methylpropyl)-6-chloro-8-[(2,6-difluorobenzyl)oxy]-2-methylimidazo[1,2-a]pyridine-3-carboxamide], the MEC is 1.00 µM.

On to `Cc1nc2c(OCc3c(F)cccc3F)cccn2c1C(=O)NCC(N)CC(F)(F)F` (single isomer, unassigned) [Example 127, ent-N-(2-Amino-4,4,4-trifluorobutyl)-8-[(2,6-difluorobenzyl)oxy]-2-methylimidazo[1,2-a]pyridine-3-carboxamide], for which the MEC came out at 1.00 µM.

For the molecule `CCCC[C@H](CNCCOC)NC(=O)c1c(C)nc2c(OCc3c(F)cccc3F)cccn12` [Example 70, ent-8-[(2,6-difluorobenzyl)oxy]-N-{(2R)-1-[(2-methoxyethyl)amino]hexan-2-yl}-2-methylimidazo[1,2-a]pyridine-3-carboxamide], the MEC was 1.00 µM.

For `CCCC(C)(N)CNC(=O)c1c(C)nc2c(OCc3c(F)cccc3F)cc(OC)cn12` (single isomer, unassigned; enantiomer b) [Example 278, ent-N-(2-amino-2-methylpentyl)-8-[(2,6-difluorobenzyl)oxy]-6-methoxy-2-methylimidazo[1,2-a]pyridine-3-carboxamide (Enantiomer B)], the MEC is 0.3 µM.

For the molecule `Cc1nc2c(OCc3c(F)cccc3F)cccn2c1C(=O)NC(C)[C@H](C)N` (stereo partly drawn) [Example 120, N-[(3S)-3-Aminobutan-2-yl]-8-[(2,6-difluorobenzyl)oxy]-2-methylimidazo[1,2-a]pyridine-3-carboxamide], the MEC was 0.30 µM.

With `CCCC(C)(N)CNC(=O)c1c(C)nc2c(OCc3c(F)c(F)cc(F)c3F)cc(C)cn12` (racemic) [Example 311, rac-N-(2-amino-2-methylpentyl)-2,6-dimethyl-8-[(2,3,5,6-tetrafluorobenzyl)oxy]imidazo[1,2-a]pyridine-3-carboxamide], the MEC stood at 0.30 µM.

For the molecule `Cc1nc2c(OCc3c(F)cccc3F)cc(Cl)cn2c1C(=O)NCC(C)(N)C(F)(F)F` (single isomer, unassigned) [Example 237, ent-N-(2-Amino-3,3,3-trifluoro-2-methylpropyl)-6-chloro-8-[(2,6-difluorobenzyl)oxy]-2-methylimidazo[1,2-a]pyridine-3-carboxamide], the MEC worked out at 0.30 µM.

For the molecule `Cc1nc2c(OCc3c(F)cccc3F)cc(Cl)cn2c1C(=O)NCC(N)CC(F)(F)F` (single isomer, unassigned) [Example 193, ent-N-(2-Amino-4,4,4-trifluorobutyl)-6-chloro-8-[(2,6-difluorobenzyl)oxy]-2-methylimidazo[1,2-a]pyridine-3-carboxamide], the MEC amounted to 1.00 µM.

Take `Cc1nc2c(OCc3c(F)cccc3F)cccn2c1C(=O)N[C@H]1CCNC1` [Example 61, 8-[(2,6-Difluorobenzyl)oxy]-2-methyl-N-[(3S)-pyrrolidin-3-yl]imidazo[1,2-a]pyridine-3-carboxamide]: the MEC was found to be 3.00 µM.

As to `Cc1nc2c(OCc3c(F)cccc3F)cccn2c1C(=O)NCC(C)N1CCOCC1` (single isomer, unassigned; ent-8) [Example 181, ent-8-[(2,6-Difluorobenzyl)oxy]-2-methyl-N-[2-(morpholin-4-yl)propyl]imidazo[1,2-a]pyridine-3-carboxamide], the MEC worked out at 1.00 µM.

`Cc1nc2c(OCc3c(F)cccc3F)cccn2c1C(=O)NCC(C)(N)CC(C)C` (racemic) [Example 202, rac-N-(2-Amino-2,4-dimethylpentyl)-8-[(2,6-difluorobenzyl)oxy]-2-methylimidazo[1,2-a]pyridine-3-carboxamide]: the MEC was determined as 0.10 µM.

As for `CCCC(C)(N)CNC(=O)c1c(C)nc2c(OCc3ccccc3Br)cc(C)cn12` (centres unmarked) [Example 353, N-(2-amino-2-methylpentyl)-8-[(2-bromobenzyl)oxy]-2,6-dimethylimidazo[1,2-a]pyridine-3-carboxamide], the MEC came to 3.00 µM.

`COC(=O)[C@@H](N)CCCCNC(=O)c1c(C)nc2c(OCc3c(F)cccc3F)cc(C)cn12` [Example 294, Methyl N^6-({8-[(2,6-difluorobenzyl)oxy]-2,6-dimethylimidazo[1,2-a]pyridin-3-yl}carbonyl)-L-lysinate]: the MEC was determined as 0.065 µM.

The record behind these values is patent publication US9624214B2, “Amino-substituted imidazo[1,2-a]pyridinecarboxamides and their use” (BAYER PHARMA AKTIENGESELLSCHAFT, priority 2012, dated 2017).
